In publication PMC9730296, “High-Throughput Steady-State Enzyme Kinetics Measured in a Parallel Droplet Generation and Absorbance Detection Platform” (Analytical Chemistry, 2022):

Test system: T1, SN243
T1 construct: purified
Test: pNP release, absorbance […] nm in microfluidic droplets
Format: biochemical, metagenome: source not printed
Details: 100 mM Tris pH 8.0, 150 mM NaCl, room temperature, substrate in DMSO

| Structure (SMILES) | Km (mean of 12 datasets) | Km (detection points 1-4 only) |
| --- | --- | --- |
| O=C(O)C1OC(Oc2ccc([N+](=O)[O-])cc2)C(O)C(O)C1O (stereo not drawn) [pNP-β-GalA] | 1.6 ± 0.3 mM | – |
| O=[N+]([O-])c1ccc(O[C@@H]2O[C@H](CO)[C@H](O)[C@H](O)[C@H]2O)cc1 [pNP-β-Gal] | 75.8 ± 7.7 mM | – |
| O=C(O)[C@H]1O[C@@H](Oc2ccc([N+](=O)[O-])cc2)[C@H](O)[C@@H](O)[C@@H]1O [pNP-β-GlcA] | – | 0.015 mM |

The next lines start with the values.

| Km (mean of 12 datasets) | Km (detection points 1-4 only) | Structure (SMILES) |
| --- | --- | --- |
| 21.9 ± 1.6 mM | – | O=[N+]([O-])c1ccc(O[C@@H]2OC[C@@H](O)[C@H](O)[C@H]2O)cc1 [pNP-β-Xyl] |
| 36.8 ± 9 mM | – | O=[N+]([O-])c1ccc(O[C@@H]2O[C@H](CO)[C@@H](O)[C@H](O)[C@H]2O)cc1 [pNP-β-Glc] |
